The nature of series [1]: Antioxidant activity assessed as DPPH radical scavenging activity incubated for 30 mins. It is filed as physicochemical.
Series [2] deals with Staphylococcus aureus. Kind of series: Antimicrobial activity against methicillin-resistant Staphylococcus aureus. It is filed as functional, organism-based.
Series [3] relates to Klebsiella pneumoniae. Put plainly: Antimicrobial activity against Klebsiella pneumoniae. Type of series: functional, organism-based.
Series [4] deals with MIA PaCa-2. Kind of series: Cytotoxicity against human MIAPaCa2 cells by MTT assay. Type of series: functional, cell-based.

Activity calls are given as the source filed them. The calls are words filed in the database; no cut-off is given here.

On to `O=C1O[C@H]([C@@H](O)CO)C(O)=C1O` [ASCORBIC ACID], for which the IC50 in series [1] is 3.2 µM.
For `O=C1c2c3c(cc(O)c2[C@H](O)[C@H](O)[C@@H]1Cl)-c1ccc(O)c2c(O)ccc-3c12`, the half-inhibitory concentration (IC50) in series [1] was 3.6 µM. Further, the outcome in series [2], in series [3] and in series [4] was inactive.
`O=C1c2c3c(cc(O)c2[C@H](O)[C@@H]2O[C@H]12)-c1ccc(O)c2c(O)ccc-3c12`: the 50% inhibitory concentration (IC50) in series [1] stood at 3.1 µM. Moreover, the result in series [2], in series [3] and in series [4] was inactive.

The values are drawn from ChEMBL document CHEMBL3351245, “Chlorinated polyketide obtained from a Daldinia sp. treated with the epigenetic modifier suberoylanilide hydroxamic acid” (J Nat Prod, 2014).
